Where two headings read alike, the source gives them in different places.
B1: IFN-β: recombinant human fibroblast interferon with a serine substituted for a cysteine at position 17 (protein, UniProt P01574 22-187, looked up, variant C17S)
Interferon beta: MSYNLLGFLQRSSNFQSQKLLWQLNGRLEYCLKDRMNFDIPEEIKQLQQFQKEDAALTIYEMLQNIFAIFRQDSSSTGWNETIVENLLANVYHQINHLKTVLEEKLEKEDFTRGKLMSSLHLKRYYGRILHYLKAKEYSHCAWTIVRVEILRNFYFINRLTGYLRN
B2: IFN-γ: recombinant human immune interferon produced in Escherichia coli (protein, UniProt P01579 24-161, looked up)
Interferon gamma: QDPYVKEAENLKKYFNAGHSDVADNGTLFLGILKNWKEESDRKIMQSQIVSFYFKLFKNFKDDQSIQKSVETIKEDMNVKFFNSNKKKRDDFEKLTNYSVTDLNVQRKAIHELIQVMAELSPAAKTGKRKRSQMLFRG

Key:
Format in all cases: cell-based, human
[1] = system: HLA Class II-DRβ antigen mRNA; assay: Northern blotting, steady-state HLA Class II-DRβ mRNA in T47D cells; details: 72 hr, 500 units/ml IFN-α or IFN-β, 50 units/ml IFN-γ, 0.1 μg/ml TPA, MEZ or ADMB, densitometry
Description: (§1) FIG. 3: Effect of interferon, ADMB, TPA and MEZ, alone and in combination with H-7, on steady-state mRNA levels of HLA Class I antigens, HLA Class II-DRβ antigen, c-erbB-2, ICAM-1 and GAPDH in T47D human breast carcinoma cells. […] Cultures were also grown in the presence of 0.1 μg/ml of H-7 for 72 hr with and without the additional compounds indicated above. Total cytoplasmic RNA was isolated and processed as described in “Detailed Description Of The Invention.” Control: CON; recombinant human leukocyte interferon-A: IFN-αA; recombinant human fibroblast interferon: IFN-β; recombinant human immune interferon: IFN-γ; ADMB; 3-(N-acetylamino)-5-(N-decyl-N-methylamino)-benzyl alcohol; TPA; 12-0-tetradecanoyl-phorbol-13-acetate; MEZ; mezerein; H-7: (1-(5-isoquinolinesulfonyl)-2-methylpiperazine dihydrochloride.
(§2) Steady-state levels of HLA Class I, HLA Class II-DRβ, c-erbB-2 and ICAM-I mRNA in control and treated T47D cells were determined by Northern blotting analysis of total cytoplasmic RNA probed with appropriate ^32P-labeled gene probes as previously described. Northern blots were also probed with a ^32P-labeled glyceraldehyde phosphate dehydrogenase (GAPDH) gene probe to verify equal […] under various experimental conditions. Following hybridization, the filters were washed and exposed for autoradiography.

T47D cells [2] = assay: Dose-range and time-course of antigenic enhancement in T47D cells and effect of H-7
Description: T47D cells treated with the various compounds were analyzed by flow cytometry using appropriate monoclonal antibody concentrations as described previously. Briefly, 1×10^5 cells were incubated with the test antibody for 30 min at 4° C., washed 3× with PBS and incubated with a goat a mouse F (ab)2 FITC conjugated test antibody at a 1:40 dilution for 30 min at 4° C. Cells were then washed 3× with PBS and analyzed on a FACStar (Beckon Dickinson, Mountain View, Calif.) or a Coulter Epics IV FACS (Coulter, Hialeah, Fla.). Results are expressed as mean fluorescence intensity (MFI) units which were determined as described previously. MFI=(mean channel fluorescence in fluorescence positive antibody-binding cells×% of fluorescence positive antibody-binding cells)−(mean channel fluorescence in unstained cells×% of fluorescence positive cells in the unstained population). All studies were performed a minimum of three or four times with duplicate samples in each experiment.

HLA Class I = assay: Northern blotting, steady-state HLA Class I mRNA in T47D cells; details: 72 hr; for increase in HLA class I antigen mRNA levels: 500 units/ml IFN-α or IFN-β, 50 units/ml IFN-γ, 0.1 μg/ml TPA or MEZ, densitometry
Description: as §1, §2

T47D cells [3] = assay: 3H-thymidine incorporation (DNA synthesis) in T47D cells; details: 0.1 μg/ml, 72 hr, FIG. 1
Description: FIG. 1: Effect of H-7, TPA, MEZ and ADMB on T47D cell growth and DNA synthesis. Cell growth assays are presented in (A). T47D cells were seeded at 1×10^4 cells/35 mm tissue culture plate, the medium was changed with the indicated compounds 24 hr later and cell numbers were determined after an additional 72 hr growth at 37° C. by Coulter Counter. Results are the average of triplicate samples/experimental condition which varied by ≦10%. DNA synthesis assays are presented in (B). T47 D cells were seeded at 1.25×10^4 cells in 0.2 ml of media in 96 microtiter plates. Every 24 hr, cultures received 1 μCi of methyl-^3H-thymidine and 8 hr later cells were harvested and TCA precipitable counts were determined. Results are the average from replicate samples exposed to the indicated compounds for 72 hr. Replicate samples varied by ≦10% and replicate studies varied by ≦15%. Further details can be found in “Detailed Description Of The Invention”.
T47D cells were seeded at 5×10^3 cells/ml in 35 mm tissue culture plates and 24 hr later the medium was changed with the indicated compounds. Seventy-two hr later the cells were resuspended in trysin/versene (0.125%/0.02%, w/w) and counted using a ZM Coulter Counter (Coulter Electronics). For ^3H-thymidine incorporation studies, T47D cells were seeded at 1.25×10^4 cells in 0.2 ml of media in 96 well microtiter plates. Every 24 hr, plates received 1 μCi of methyl-^3H-thymidine (specific activity […]) (ICN Radiochemicals, Irvine, Calif.), cells were harvested 8 hr after the addition of labeled thymidine and TCA precipitable counts were determined using a Packard scintillation counter. Replicate samples varied by ≦10% and replicate studies varied by ≦15%.

[4] = T47D cells, preliminary studies, data not shown

Row | Molecule | increase in HLA Class II-DR antigen mRNA levels [1] | most effective dose inducing upregulation of BCA 225, HLA Class II antigens, ICAM-1 and c-erbB-2 (T47D cells [2]) [µg/mL] | increase in HLA class I antigen mRNA levels (HLA Class I) [fold] | effect on DNA synthesis (3H-thymidine incorporation) (T47D cells [3]) | effect of H-7 on enhancement of BCA 225, HLA Class II antigens and ICAM-1 expression by IFN-β or IFN-γ (T47D cells [2]; T47D cells, 1.0 μg/ml H-7) | effect of H-7 on increased antigenic expression induced by TPA, MEZ or ADMB (T47D cells [2]; T47D cells, simultaneous exposure to 0.1 μg/ml H-7) | alteration of HLA class I mRNA levels by H-7 (HLA Class I; 0.1 μg/ml H-7) [fold] | most effective dose inducing upregulation of BCA 225, HLA Class II antigens, ICAM-1 and c-erbB-2 (T47D cells [2]; [4]) [µg/mL]
1 | CCCCCCCCCCCCCC(=O)O[C@@H]1[C@@H](C)[C@@]2(O)[C@@H](C=C(CO)C[C@]3(O)C(=O)C(C)=C[C@@H]23)[C@H]2C(C)(C)[C@]12OC(C)=O [TPA, 12-0-tetradecanoyl-phorbol-13-acetate] | did not increase | 0.1 | 1.3 | suppressed to the greatest degree |  |  |  | 
2 | CC1CNCCN1S(=O)(=O)c1cccc2cnccc12.Cl.Cl (stereo not drawn) [H-7, 1-(5-isoquinolinesulfonyl)-2-methylpiperazine dihydrochloride] |  |  |  |  | did not inhibit | inhibited | ≤ 1.2 | 
3 | C=C(C)[C@@]12O[C@@]3(c4ccccc4)O[C@@H]1[C@@H]1[C@@H]4O[C@]4(CO)[C@@H](O)[C@]4(O)C(=O)C(C)=C[C@H]4[C@@]1(O3)[C@H](C)[C@H]2OC(=O)/C=C/C=C/c1ccccc1 [MEZ, mezerein] | 1.2 fold |  | 1.75 | only marginally altered |  |  |  | 0.1
4 | CCCCCCCCCCN(C)c1cc(CO)cc(NC(C)=O)c1 [ADMB, 3-(N-acetylamino)-5-(N-decyl-N-methylamino)-benzyl alcohol] | did not increase |  |  | only marginally altered |  |  |  | 0.1
5 | B1 | 1.2 fold |  | 2.1 |  |  |  |  | 
6 | B2 | 1.25 fold |  | 1.8 |  |  |  |  | 

— patent publication US20020040062A1, “Protein kinase C activators and their use in decreasing expression of cell antigens” (The Trustees of Columbia University, priority 1993, published 2002)
